Results on 3 compounds are retold here after ChEMBL document CHEMBL1153128, “Synthesis of a hydrolytically stable, fluorescent-labeled ATP analog as a tool for probing adenylyl cyclases” (Bioorg Med Chem Lett, 2010).

The structures appear in SMILES notation.

The assay addresses T1, Calmodulin-sensitive adenylate cyclase (Bacillus anthracis, UniProt P40136).
T1 sequence (P40136 whole entry): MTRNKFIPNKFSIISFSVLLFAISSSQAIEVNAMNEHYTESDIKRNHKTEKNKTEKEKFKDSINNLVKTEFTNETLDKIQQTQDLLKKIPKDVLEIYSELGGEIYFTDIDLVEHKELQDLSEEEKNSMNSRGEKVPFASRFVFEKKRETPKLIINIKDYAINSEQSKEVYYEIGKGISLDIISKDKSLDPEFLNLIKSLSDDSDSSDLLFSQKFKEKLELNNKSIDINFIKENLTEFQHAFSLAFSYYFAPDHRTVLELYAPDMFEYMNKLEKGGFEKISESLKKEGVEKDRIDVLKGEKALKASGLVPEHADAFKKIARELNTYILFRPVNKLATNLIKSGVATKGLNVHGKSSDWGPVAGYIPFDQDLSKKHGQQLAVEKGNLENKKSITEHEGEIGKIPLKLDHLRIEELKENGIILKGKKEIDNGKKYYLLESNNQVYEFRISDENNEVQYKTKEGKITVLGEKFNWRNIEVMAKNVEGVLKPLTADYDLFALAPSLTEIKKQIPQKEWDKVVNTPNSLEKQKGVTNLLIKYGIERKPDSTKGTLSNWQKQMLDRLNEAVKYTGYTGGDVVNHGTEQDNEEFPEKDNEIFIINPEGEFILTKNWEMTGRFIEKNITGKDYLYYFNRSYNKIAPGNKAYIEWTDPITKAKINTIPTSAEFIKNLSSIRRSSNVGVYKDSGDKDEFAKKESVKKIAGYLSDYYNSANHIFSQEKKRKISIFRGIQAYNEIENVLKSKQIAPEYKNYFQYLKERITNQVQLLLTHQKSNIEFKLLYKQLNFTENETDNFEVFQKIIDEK
The assay is described as follows: Inhibition of Bacillus anthracis edema factor catalytic domain by radiometric assay.
For the compound `CNc1ccccc1C(=O)O[C@@H]1[C@H](O)[C@@H](COP(=O)(O)OP(=O)(O)OP(=O)(O)O)O[C@H]1n1ccc(N)nc1=O`, the Ki was 100 nM. This counts as sub-micromolar.

Take `CNc1ccccc1C(=O)O[C@H]1[C@@H](O)[C@H](n2cnc3c(N)ncnc32)O[C@@H]1CO[P@@](=O)(O)O[P@](=O)(O)OP(=O)(O)O`: the Ki worked out at 980 nM.

The compound `CNc1ccccc1C(=O)N[C@@H]1[C@H](O)[C@@H](COP(=O)(O)OP(=O)(O)C(Cl)(Cl)P(=O)(O)O)O[C@H]1n1cnc2c(N)ncnc21` displayed a Ki of 8980 nM.

The term Ki denotes the equilibrium dissociation constant of an inhibitor or competing ligand from its target. The low end stands for a stronger hold on the target, the high end for a looser hold on the target.
